Measurements as given in US10800789B2, “Antiviral compounds” (Gilead Pharmasset LLC, priority 2012, dated 2020).
Read-outs that look alike come from different tables or passages of the source.

Key:
[1] = test system: stable HCV 1a RLuc replicon cells (dicistronic genotype 1a H77 replicon); experiment: Renilla luciferase HCV replicon reporter assay, genotype 1a; assay type: cell-based; details: Hepatitis C virus, 72 h, stable 1a H77 RLuc replicon cells
Protocol: (§1) Evaluation of Cell-Based Anti-HCV Activity:
(§2) Antiviral potency (EC50) was determined using a Renilla luciferase (RLuc)-based HCV replicon reporter assay. To perform the assay for genotype 1 and 2a JFH-1, stable HCV 1a RLuc replicon cells (harboring a dicistronic genotype 1a H77 replicon that encodes a RLuc reporter), stable HCV 1b RLuc replicon cells (harboring a dicistronic genotype 1b Con1 replicon that encodes a RLuc reporter), or stable HCV 2a JFH-1 Rluc replicon cells (harboring a dicistronic genotype 2a JFH-1 replicon that encodes a RLuc reporter; with L31 present in NS5A) were dispensed into 384-well plates for EC50 assays. To perform the assay for genotype 2a (with M31 present in NS5A) or 2b, NS5A chimeric genotype 2a JFH-1 replicons that encodes a RLuc-Neo reporter and either genotype 2a J6 strain NS5A gene or genotype 2b MD2b-1 strain NS5A gene (both with M31 present) respectively, were either transiently transfected (t) into Huh-Lunet cells or were established as stably replicating replicon cells (s) is provided. Either cells were dispensed into 384-well plates for EC50 assays. To perform the assay for genotype 3 and 4, NS5A chimeric genotype 1b Con1 replicons that encodes a Pi-RLuc reporter and either genotype 3a S52 strain NS5A gene or genotype 4a ED43 strain NS5A gene respectively, were transiently transfected (t) into Huh-Lunet cells, which were subsequently dispensed into 384-well plates. Compounds were dissolved in DMSO at a concentration of 10 mM and diluted in DMSO either manually or using an automated pipeting instrument. Serially 3-fold diluted compounds were either manually mixed with cell culture media and added to the seeded cells or directly added to the cells using an automated instrument. DMSO was used as a negative (solvent; no inhibition) control, and the protease inhibitor ITMN-191 was included at a concentration>100×EC50 as a positive control. 72 hours later, cells were lysed and Renilla luciferase activity quantified as recommended by the manufacturer (Promega-Madison, Wis.). Non-linear regression was performed to calculate EC50 values.

[2] = test system: NS5A chimeric genotype 1b Con1 replicon with genotype 4a ED43 strain NS5A gene; experiment: Replicon assay, genotype 4a NS5A chimera; assay type: cell-based, HCV; details: Hepatitis C virus
[3] = test system: stable HCV 1b RLuc replicon cells (dicistronic genotype 1b Con1 replicon); experiment: Renilla luciferase HCV replicon reporter assay, genotype 1b; assay type: cell-based; details: Hepatitis C virus, 72 h, stable 1b Con1 RLuc replicon cells, 72 hours; read-out: 1b
Protocol: as §1, §2

[4] = test system: NS5A chimeric genotype 2a JFH-1 replicon with genotype 2a J6 strain NS5A gene (M31 present); experiment: Replicon assay, genotype 2a J6 NS5A chimera; assay type: cell-based, HCV; details: Hepatitis C virus
Protocol: as §1, §2

[5] = test system: NS5A chimeric genotype 1b Con1 replicon with genotype 3a S52 strain NS5A gene; experiment: Replicon assay, genotype 3a NS5A chimera; assay type: cell-based, HCV; details: Hepatitis C virus
[6] = test system: stable HCV 2a JFH-1 Rluc replicon cells (L31 present in NS5A); experiment: Renilla luciferase HCV replicon reporter assay, genotype 2a JFH-1; assay type: cell-based; details: Hepatitis C virus
Protocol: as §1, §2

[7] = test system: NS5A chimeric genotype 2a JFH-1 replicon with genotype 2b MD2b-1 strain NS5A gene (M31 present); experiment: Replicon assay, genotype 2b NS5A chimera; assay type: cell-based, HCV; details: Hepatitis C virus
Protocol: as §1, §2

[8] = read-out: 4a (s) (nM), genotype 4a NS5A chimeric replicon, stable replicon cells (s)
[9] = read-out: 4a (s), (s), activity range
[10] = read-out: 2a J6 (t) (nM), genotype 2a J6 NS5A chimeric replicon (M31), transiently transfected (t) into Huh-Lunet cells
[11] = read-out: 2a J6 (t), transiently transfected (t) into Huh-Lunet cells, activity range
[12] = read-out: 3a (s) (nM), genotype 3a NS5A chimeric replicon, stable replicon cells (s)
[13] = read-out: 3a (s), (s), activity range
[14] = read-out: 2a JFH (nM), genotype 2a JFH-1 replicon (L31 in NS5A), stable cells
[15] = read-out: 2a JFH, stable 2a JFH-1 Rluc replicon cells, L31 in NS5A, activity range
[16] = 2BS, read-out: 2b (s), stably replicating replicon cells (s), activity range
[17] = read-out: 2b (s) (nM), genotype 2b MD2b-1 NS5A chimeric replicon (M31), stably replicating replicon cells (s)
[18] = read-out: 3a (t) (nM), genotype 3a NS5A chimeric replicon, transiently transfected (t)
[19] = read-out: 3a (t), transiently transfected (t) into Huh-Lunet cells, activity range

Compound | EC50 [1] | EC50 ([1]; activity range) | EC50 [2, 8] | EC50 [2, 9] | EC50 [3] | EC50 [4, 10] | EC50 [4, 11] | EC50 [5, 12] | EC50 [5, 13] | EC50 [6, 14] | EC50 [6, 15] | EC50 [7, 16] | EC50 [7, 17] | EC50 [5, 18] | EC50 [5, 19]
CC[C@H](C)[C@H](NC(=O)OC)C(=O)N1[C@@H](C)CC[C@H]1c1ncc(-c2ccc3c(c2)COc2cc4c(ccc5nc([C@@H]6CC[C@H](C)N6C(=O)[C@@H](NC(=O)OC)[C@@H](C)CC)[nH]c54)cc2-3)[nH]1 [EC, Methyl {(2S,3S)-1-[(2S,5S)-2-(9-{2-[(2S,5S)-1-{(2S,3S)-2-[(methoxycarbonyl)amino]-3-methylpentanoyl}-5-methylpyrrolidin-2-yl]-1H-imidazol-5-yl}-1,11-dihydroisochromeno[4′,3′:6,7]naphtho[1,2-d]imidazol-2-yl)-5-methylpyrrolidin-1-yl]-3-methyl-1-oxopentan-2-yl}carbamate] | 0.008 nM | < 0.1 nM | 0.004 nM | < 0.1 nM | 0.017 nM | 0.429 nM | 0.1 to 0.999 nM | 0.029 nM | < 0.1 nM | 0.015 nM | < 0.1 nM | 0.1 to 0.999 nM | 0.4 nM |  | 
CC[C@H](C)[C@H](NC(=O)OC)C(=O)N1C[C@@H](COC)C[C@H]1c1nc2ccc3cc4c(cc3c2[nH]1)OCc1cc(-c2cnc([C@@H]3CC[C@H](C)N3C(=O)[C@@H](NC(=O)OC)[C@@H](C)OC)[nH]2)ccc1-4 [ED, methyl{(2S,3S)-1-[(2S,4S)-2-(9-{2-[(2S,5S)-1-{(2S,3R)-3-methoxy-2-[(methoxycarbonyl)amino]butanoyl}-5-methylpyrrolidin-2-yl]-1H-imidazol-5-yl}-1,11-dihydroisochromeno[4′,3′:6,7]naphtho[1,2-d]imidazol-2-yl)-4-(methoxymethyl)pyrrolidin-1-yl]-3-methyl-1-oxopentan-2-yl}carbamate] | 0.015 nM | < 0.1 nM | 0.025 nM | < 0.1 nM | 0.029 nM | 0.021 nM | < 0.1 nM | 0.099 nM | < 0.1 nM | 0.011 nM | < 0.1 nM | 0.1 to 0.999 nM | 0.241 nM |  | 
COC[C@H]1C[C@@H](c2nc3ccc4cc5c(cc4c3[nH]2)OCc2cc(-c3cnc([C@@H]4CC[C@H](C)N4C(=O)[C@@H](NC(=O)OC)C(C)C)[nH]3)ccc2-5)N(C(=O)[C@@H](NC(=O)OC)C2CCOCC2)C1 [EF, methyl[(1 S)-2-[(2S,4S)-2-(9-{2-[(2S,5S)-1-{(2S)-2-[(methoxycarbonyl)amino]-3-methylbutanoyl}-5-methylpyrrolidin-2-yl]-1H-imidazol-5-yl}-1,11 dihydroisochromeno[4′,3′:6,7]naphtho[1,2-d]imidazol-2-yl)-4-(methoxymethyl)pyrrolidin-1-yl]-2-oxo-1-(tetra hydro-2H-pyran-4-yl)ethyl]carbamate] | 0.039 nM | < 0.1 nM | 0.02 nM | < 0.1 nM | 0.053 nM | 0.023 nM | < 0.1 nM | 0.12 nM | 0.1 to 0.999 nM | 0.014 nM | < 0.1 nM | < 0.1 nM | 0.091 nM | 0.102 nM | 0.1 to 0.999 nM
COC(=O)NC(C(=O)N1[C@@H](C)CC[C@H]1c1nc2ccc3cc4c(cc3c2[nH]1)OCc1cc(-c2cnc([C@@H]3CC[C@H](C)N3C(=O)[C@@H](NC(=O)OC)[C@@H](C)OC)[nH]2)ccc1-4)C1CCOCC1 (stereo partly drawn) [EG, methyl{2-[(2S,5S)-2-(9-{2-[(2S,5S)-1-{(2S,3R)-3-methoxy-2-[(methoxycarbonyl)amino]butanoyl}-5-methylpyrrolidin-2-yl]-1H-imidazol-5-yl}-1,11-dihydroisochromeno[4′,3′:6,7]naphtho[1,2-d]imidazol-2-yl)-5-methylpyrrolidin-1-yl]-2-oxo-1-(tetrahydro-2H-pyran-4-yl)ethyl}carbamate] | 0.036 nM | < 0.1 nM | 0.016 nM | < 0.1 nM | 0.045 nM | 0.023 nM | < 0.1 nM | 0.076 nM | < 0.1 nM | 0.022 nM | < 0.1 nM | < 0.1 nM | 0.072 nM | 0.103 nM | 0.1 to 0.999 nM
COC(=O)N[C@H](C(=O)N1[C@@H](C)CC[C@H]1c1nc2ccc3cc4c(cc3c2[nH]1)OCc1cc(-c2cnc([C@@H]3C[C@H](C)CN3C(=O)[C@@H](NC(=O)OC)C3CCOCC3)[nH]2)ccc1-4)C(C)C [EJ, methyl[(2S)-1-{(2S,5S)-2-[9-(2-{(2S,4S)-1-[(2S)-2-[(methoxycarbonyl)amino]-2-(tetrahydro-2H-pyran-4-yl)acetyl]-4-methylpyrrolidin-2-yl}-1H-imidazol-5-yl)-1,11-dihydroisochromeno[4′,3′:6,7]naphtho[1,2-d]imidazol-2-yl]-5-methylpyrrolidin-1-yl}-3-methyl-1-oxobutan-2-yl]carbamate] | 0.016 nM | < 0.1 nM | 0.017 nM | < 0.1 nM | 0.039 nM | 0.041 nM | < 0.1 nM | 0.081 nM | < 0.1 nM | 0.028 nM | < 0.1 nM | 0.1 to 0.999 nM | 0.112 nM | 0.046 nM | < 0.1 nM
CC[C@H]1CC[C@@H](c2nc3ccc4cc5c(cc4c3[nH]2)OCc2cc(-c3cnc([C@@H]4CC[C@H](C)N4C(=O)[C@@H](NC(=O)OC)[C@@H](C)OC)[nH]3)ccc2-5)N1C(=O)[C@@H](NC(=O)OC)[C@@H](C)OC [EK, methyl[(2S,3R)-1-{(2S,5S)-2-[5-(2-{(2S,5S)-5-ethyl-1-[N-(methoxycarbonyl)-O-methyl-L-threonyl]pyrrolidin-2-yl}-1,11-dihydroisochromeno[4′,3′:6,7]naphtho[1,2-d]imidazol-9-yl)-1H-imidazol-2-yl]-5-methylpyrrolidin-1-yl}-3-methoxy-1-oxobutan-2-yl]carbamate] | 0.034 nM | < 0.1 nM | 0.025 nM | < 0.1 nM | 0.05 nM | 0.116 nM | 0.1 to 0.999 nM | 0.173 nM | 0.1 to 0.999 nM | 0.03 nM | < 0.1 nM | 0.1 to 0.999 nM | 0.238 nM |  | 
CC[C@H]1CC[C@@H](c2ncc(-c3ccc4c(c3)COc3cc5c(ccc6nc([C@@H]7CC[C@H](C)N7C(=O)[C@@H](NC(=O)OC)[C@@H](C)OC)[nH]c65)cc3-4)[nH]2)N1C(=O)[C@@H](NC(=O)OC)[C@@H](C)OC [EM, methyl[(2S,3R)-1-{(2S,5S)-2-ethyl-5-[5-(2-{(2S,5S)-1-[N-(methoxycarbonyl)-O-methyl-L-threonyl]-5-methylpyrrolidin-2-yl}-1,11dihydroisochromeno[4′,3′:6,7]naphtho[1,2-d]imidazol-9-yl)-1H-imidazol-2-yl]pyrrolidin-1-yl}-3-methoxy-1-oxobutan-2-yl]carbamate] | 0.013 nM | < 0.1 nM | 0.008 nM | < 0.1 nM | 0.02 nM | 0.043 nM | < 0.1 nM | 0.061 nM | < 0.1 nM | 0.012 nM | < 0.1 nM | < 0.1 nM | 0.082 nM |  | 
